Laboratory results from patent US11214803B2, “Modulators of YAP1 expression” (Ionis Pharmaceuticals, Inc., priority 2019, dated 2022).
Strand notation (5' to 3'): a small letter for the sugar, then the base; units joined by * are phosphorothioate-linked, units joined directly phosphodiester-linked; [ ] holds rarer units or linkages, { } end groups; capitals alone tell only the bases. e = 2'-O-(2-methoxyethyl) (MOE); k = constrained ethyl (cEt); [5mC] = 5-methylcytosine; d = 2'-deoxy (DNA); m = 2'-O-methyl

System: Yap1 mRNA
Test: Antisense inhibition of human Yap1 in SNU-449 cells by modified oligonucleotides, single dose (Example 5, RTS36584)
Assay type: cell-based
Summary of the method: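 Free uptake, 2,000 nM, ~48 h, SNU-449 at 10,000 cells/well. Read-out: qRT-PCR (RTS36584), RIBOGREEN-normalised, expressed as % UTC. Asterisk = oligo hits amplicon region.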

[1] = Table 46, Yap1 mRNA as percent of untreated control, SNU-449 cells, single dose
[2] = Table 41, SNU-449 cells, 10,000 cells per well, free uptake, 2,000 nM modified oligonucleotide, approximately 48 hours, RTS36584, normalized to RIBOGREEN, Yap1 mRNA relative to untreated control cells
[3] = Table 49, Yap1 mRNA level relative to untreated control, modified oligonucleotides targeting SEQ ID NO.: 1 and 2
[4] = Table 39, SNU-449 cells, 10,000 cells per well, free uptake, 2,000 nM oligonucleotide, approx. 48 hours, RTS36584, normalized to RIBOGREEN, Yap1 mRNA relative to untreated control
[5] = Table 40 (separate experiment), SNU-449 cells, 10,000 cells per well, free uptake, 2,000 nM oligonucleotide, approx. 48 hours, RTS36584, normalized to RIBOGREEN, Yap1 mRNA relative to untreated control
[6] = Table 50, Yap1 mRNA remaining as percent of untreated control (UT), SNU-449 cells, single dose
[7] = Table 42 (separate experiment), SNU-449 cells, 10,000 cells per well, free uptake, 2,000 nM modified oligonucleotide, approximately 48 hours, RTS36584, normalized to RIBOGREEN, Yap1 mRNA relative to untreated control cells
[8] = Table 48, Yap1 mRNA level relative to untreated control, modified oligonucleotides targeting SEQ ID NO.: 1 and 2
[9] = Table 51, Yap1 mRNA remaining as percent of untreated control (UT), SNU-449 cells, single dose
[10] = Table 45, Yap1 mRNA as percent of untreated control, SNU-449 cells, single dose
[11] = Table 44 experiment, SNU-449 cells, 10,000 cells per well, free uptake, 2,000 nM, approximately 48 hours, RTS36584, Yap1 mRNA normalized to RIBOGREEN, relative to untreated control cells
[12] = Yap1 mRNA, percent of untreated control, modified oligonucleotides targeting SEQ ID NO: 1 and 2, Table 47
[13] = Table 43 experiment, SNU-449 cells, 10,000 cells per well, free uptake, 2,000 nM, approximately 48 hours, RTS36584, Yap1 mRNA normalized to RIBOGREEN, relative to untreated control cells

1198831 (k[5mC]*kA*d[5mC]*dT*dT*dT*dT*dA*d[5mC]*dA*dT*kT*eA*kG*eG*kA; antisense) [Compound 1198831]
YAP1 (% UT) [1]: 12 % UT

1198771 (kT*e[5mC]*kT*dT*dA*dT*dA*dT*dG*dG*dT*dT*eT*eT*kG*kT; antisense) [Compound 1198771]
YAP1 (% UTC) [2]: 85 % UTC

1198542 (antisense kT*kG*kT*d[5mC]*dT*d[5mC]*dA*dT*dG*d[5mC]*d[5mC]*dT*kT*kA*kT*eA) [Compound 1198542]
YAP1 (% UT) [3]: 23 % UT

1198393 (kT*dT*dA*d[5mC]*dA*dT*dT*dA*dG*dG*dA*kA*e[5mC]*kA*eA*kG; antisense) [Compound 1198393]
YAP1 (% UTC) [4]: 58 % UTC

1198744 (kA*e[5mC]*kT*dT*dT*dT*dA*d[5mC]*dA*dT*dT*dA*eG*eG*kA*kA; antisense) [Compound 1198744]
YAP1 (% UTC) [5]: 66 % UTC

1198812 (antisense kA*kT*dA*dT*dG*dG*dA*dA*dA*dT*dT*kG*eT*k[5mC]*eT*k[5mC]) [Compound 1198812]
YAP1 (% UT) [1]: 26 % UT

1197283 (kG*kA*kA*dA*mU*dT*dG*dT*d[5mC]*dT*d[5mC]*dA*dT*kG*k[5mC]*k[5mC]; antisense) [Compound 1197283]
YAP1 (% UT) [6]: 29 % UT

1198209 (kT*kA*dG*dA*dG*dT*dA*dT*dG*dT*dG*eG*e[5mC]*eA*kA*kT; antisense) [Compound 1198209]
YAP1 (% UTC) [7]: 45 % UTC

1198345 (kA*kA*kT*dA*dT*dT*dG*d[5mC]*dA*dA*dT*d[5mC]*kT*eG*kT*e[5mC]; antisense) [Compound 1198345]
YAP1 (% UT) [8]: 75 % UT

1197238 (antisense kA*kG*kG*dT*mA*dT*dA*dA*d[5mC]*dT*dG*dG*dG*k[5mC]*kA*kA) [Compound 1197238]
YAP1 (% UT) [9]: 43 % UT

1198882 (kA*kG*dT*dA*dA*dG*dG*dT*dT*dT*d[5mC]*k[5mC]*e[5mC]*kA*eG*kA; antisense) [Compound 1198882]
YAP1 (% UT) [1]: 56 % UT

1198757 (kA*eG*kT*dG*d[5mC]*dT*dT*dT*dG*dG*dA*dA*eG*eA*kT*k[5mC]; antisense) [Compound 1198757]
YAP1 (% UTC) [5]: 4 % UTC

1095511 (antisense k[5mC]*kA*d[5mC]*dT*dG*dA*dG*dG*dT*dA*dT*kA*dA*k[5mC]*dT*kG) [Compound 1095511]
YAP1 (% UTC) [10]: 46 % UTC

1197215 (antisense kA*kA*kG*dT*dG*dT*dA*dT*dG*dT*d[5mC]*dA*dG*kA*kA*kG) [Compound 1197215]
YAP1 (% UT) [8]: 13 % UT

1197244 (antisense kT*kT*kA*d[5mC]*mA*dT*dT*dA*dG*dG*dA*dA*d[5mC]*kA*kA*kG) [Compound 1197244]
YAP1 (% UT) [6]: 60 % UT

1198238 (kA*kT*dA*dG*dT*dG*d[5mC]*dT*dT*dT*dG*eG*eA*eA*kG*kA) [Compound 1198238]
YAP1 (% UTC) [7]: 88 % UTC

1198419 (kA*dT*dT*d[5mC]*dA*dG*dA*dT*dT*dT*dA*kG*eG*kA*eT*kG; antisense) [Compound 1198419]
YAP1 (% UTC) [4]: 78 % UTC

1198692 (antisense kT*kG*dT*dA*dA*dT*dA*dT*dT*dG*d[5mC]*dA*kA*eT*k[5mC]*eT) [Compound 1198692]
YAP1 (% UTC) [2]: 120 % UTC

1198528 (kT*kA*dA*dA*dG*dT*dG*dT*dA*dT*dG*eT*k[5mC]*eA*kG*eA; antisense) [Compound 1198528]
YAP1 (% UTC) [11]: 14 % UTC

1198413 (kT*dT*dT*dA*dG*dG*dA*dT*dG*d[5mC]*dA*kT*eG*kG*eT*kT) [Compound 1198413]
YAP1 (% UTC) [4]: 29 % UTC

1074798 (kG*k[5mC]*kT*dT*dT*dG*dG*dA*dA*dG*dA*dT*d[5mC]*kT*kG*kA) [Compound 1074798]
YAP1 (% UT) [12]: 19 % UT

1198387 (kT*d[5mC]*dT*dA*dT*dA*dT*dT*dA*dG*dA*kG*eT*kA*eT*kG; antisense) [Compound 1198387]
YAP1 (% UTC) [4]: 84 % UTC

1095547 (antisense kA*k[5mC]*kT*dG*dA*dG*dG*dT*dA*dT*dA*dA*k[5mC]*eT*kG*eG) [Compound 1095547]
YAP1 (% UT) [3]: 42 % UT

1198952 (kT*kA*dA*dT*dA*dT*dT*dG*d[5mC]*dA*kA*kT*d[5mC]*kT*dG*kT; antisense) [Compound 1198952]
YAP1 (% UTC) [10]: 77 % UTC

1198918 (kG*k[5mC]*dA*d[5mC]*dT*dT*dT*dT*dA*d[5mC]*dA*kT*dT*kA*dG*kG) [Compound 1198918]
YAP1 (% UTC) [10]: 27 % UTC

1198803 (antisense kT*eT*kA*dG*dA*d[5mC]*dT*dA*dA*dG*dT*dA*eA*eG*kG*kT) [Compound 1198803]
YAP1 (% UTC) [5]: 62 % UTC

1198497 (antisense kA*kG*dG*dA*dT*dG*d[5mC]*dA*dT*dG*dG*eT*kT*eT*kT*eT) [Compound 1198497]
YAP1 (% UTC) [11]: 22 % UTC

1198315 (kT*kT*kA*dA*dG*d[5mC]*dA*d[5mC]*dT*dT*dT*dT*kA*e[5mC]*kA*eT; antisense) [Compound 1198315]
YAP1 (% UT) [8]: 85 % UT

1095594 (antisense k[5mC]*kT*dG*dA*dG*dG*dT*dA*dT*dA*dA*e[5mC]*eT*eG*kG*kG) [Compound 1095594]
YAP1 (% UTC) [13]: 27 % UTC

1197205 (antisense kG*kA*k[5mC]*dA*dA*d[5mC]*dT*d[5mC]*dT*dT*dA*dT*dA*kT*kG*kG) [Compound 1197205]
YAP1 (% UT) [8]: 67 % UT

1198472 (antisense kT*kA*dT*dA*dT*dT*dA*dG*dA*dG*dT*eA*kT*eG*kT*eG) [Compound 1198472]
YAP1 (% UTC) [13]: 60 % UTC

1198478 (antisense kA*kA*d[5mC]*dA*d[5mC]*dT*dG*dA*dG*dG*dT*eA*kT*eA*kA*e[5mC]) [Compound 1198478]
YAP1 (% UTC) [11]: 60 % UTC

1198310 (kA*k[5mC]*kT*dT*dT*dT*dA*d[5mC]*dA*dT*dT*dA*kG*eG*kA*eA; antisense) [Compound 1198310]
YAP1 (% UT) [8]: 28 % UT

1198213 (kA*kT*dA*dT*dT*dA*dG*dA*dG*dT*dA*eT*eG*eT*kG*kG; antisense) [Compound 1198213]
YAP1 (% UTC) [7]: 16 % UTC

1200805 (kG*kA*kG*dG*dT*mA*dT*dA*dA*d[5mC]*dT*dG*dG*kG*k[5mC]*kA; antisense) [Compound 1200805]
YAP1 (% UT) (Table 52, Yap1 mRNA, modified oligonucleotides targeting SEQ ID NO: 1 and 2): 50 % UT

1198837 (kT*kT*dG*dG*dA*dA*dG*dA*dT*d[5mC]*dT*kG*eA*kA*eA*k[5mC]; antisense) [Compound 1198837]
YAP1 (% UT) [1]: 66 % UT

1095407 (antisense kA*k[5mC]*dT*dG*dA*dG*dG*dT*dA*dT*dA*kA*e[5mC]*kT*eG*kG) [Compound 1095407]
YAP1 (% UT) [1]: 54 % UT

1198281 (kG*kA*d[5mC]*dT*dA*dA*dG*dT*dA*dA*dG*eG*eT*eT*kT*k[5mC]; antisense) [Compound 1198281]
YAP1 (% UTC) [13]: 71 % UTC

1198798 (antisense kT*eA*kA*dG*dT*dA*dA*dG*dG*dT*dT*dT*e[5mC]*e[5mC]*k[5mC]*kA) [Compound 1198798]
YAP1 (% UTC) [5]: 38 % UTC

1198642 (kT*kA*dT*dT*dA*dG*dA*dG*dT*dA*dT*dG*kT*eG*kG*e[5mC]; antisense) [Compound 1198642]
YAP1 (% UTC) [2]: 19 % UTC

1198975 (kT*kT*dA*dG*dA*d[5mC]*dT*dA*dA*dG*dT*kA*dA*kG*dG*kT; antisense) [Compound 1198975]
YAP1 (% UTC) [10]: 52 % UTC

1198853 (kA*kT*dT*d[5mC]*dA*dG*dA*dT*dT*dT*dA*kG*eG*kA*eT*kG; antisense) [Compound 1198853]
YAP1 (% UT) [1]: 105 % UT

1197243 (antisense kA*kA*k[5mC]*dA*mC*dT*dG*dA*dG*dG*dT*dA*dT*kA*kA*k[5mC]) [Compound 1197243]
YAP1 (% UT) [9]: 81 % UT

1198646 (kT*kA*dT*dA*dA*d[5mC]*dT*dG*dG*dG*d[5mC]*dA*kA*eA*kT*eT) [Compound 1198646]
YAP1 (% UTC) [7]: 80 % UTC

1198860 (kA*kA*d[5mC]*dT*d[5mC]*dT*dT*dA*dT*dA*dT*kG*eG*kT*eT*kT; antisense) [Compound 1198860]
YAP1 (% UT) [12]: 82 % UT

1198959 (kA*kG*dT*dG*dT*dA*dT*dG*dT*d[5mC]*dA*kG*dA*kA*dG*kA; antisense) [Compound 1198959]
YAP1 (% UTC) [10]: 8 % UTC

1198390 (kA*dG*dG*dT*dA*dT*dA*dA*d[5mC]*dT*dG*kG*eG*k[5mC]*eA*kA; antisense) [Compound 1198390]
YAP1 (% UTC) [4]: 37 % UTC

1198922 (kG*kG*dA*dA*dG*dA*dT*d[5mC]*dT*dG*dA*kA*dA*k[5mC]*dT*k[5mC]; antisense) [Compound 1198922]
YAP1 (% UTC) [10]: 59 % UTC

1198437 (kT*dT*dT*dA*dT*dG*dT*dA*dA*dT*dA*kT*eT*kG*e[5mC]*kA; antisense) [Compound 1198437]
YAP1 (% UTC) [4]: 63 % UTC
